Reference: patent publication US20250282770A1, “BIOLUMINESCENT PROBES TO TRACK STEM CELLS IN VIVO” (THE BOARD OF TRUSTEES OF THE UNIVERSITY OF ILLINOIS, priority 2024, published 2025)

Assays:
[1] = system: A549 human lung carcinoma cells; test: AlDeLuc activation in A549 cells, lysate bioluminescence; format: cell-based
Experimental: Validation of ALDH-Mediated Activation of AlDeLuc in Human Lung Cancer Cells. A549 cells were cultured in T75 culture flasks. After two days, cells had become ˜90% confluent. An aliquot of HAMS FK12 media (1 mL) was removed from each flask and replaced with either disulfiram (DSF) (100 μM, 0.5% DMSO) or vehicle (0.5% DMSO). After incubation for one hour, the solutions were aspirated, the cells were washed with PBS, and resuspended in fresh HAMS FK12 media (9 mL). Each flask was then incubated with the AlDeLuc such that the final concentration of the probe is 100 µM and 1% DMSO. After 60 minutes this solution was aspirated, washed with fresh PBS, and detached from the culture flasks. The cells were then transferred to a 15 mL centrifuge tube and pelleted at 1000 rpm for 5 minutes at room temp. The cells were resuspended in PBS along with 10% protease inhibitor solution (1 protease inhibitor mini tablet per 10 mL of PBS, Pierce, Thermo Fisher Scientific) and sonicated on ice for 2.5 minutes (pulse 01, 01, 40%). […] ROIs were drawn around each well and the signal intensity was quantified using the Living Image Analysis software.
Determining Sensitivity of AlDeLuc by Cell Concentration Changes. […] ROIs were drawn around each well and the signal intensity was quantified using the Living Image Analysis software.

BALB/c mice = test: Evaluation of systemic toxicity of AlDeLuc, H&E staining of organs; format: in vivo; details: 0.55 mg/kg systemic (retro-orbital); four hours
Experimental: Evaluation of Systemic Toxicity of AlDeLuc in BALB c mice. BALB/c mice were anesthetized and administered AlDeLuc or vehicle via retro-orbital injection (0.55 mg/kg, 1:19 v/v DMSO:PBS). After four hours, mice were euthanized, and their organs were harvested, fixed in formalin, and submitted to Veterinary Medicine for Hematoxylin and eosin staining.

[2] = Evaluation of acetal response to 1 M HCl; format: physicochemical; details: 100 μM; 1 M HCl for one hour; ALDH1A1 0.4 μM; compared among 9, 10, 11
Experimental: Evaluation of Acetal Response to 1 M HCl. To identify the most robust turn-on to be utilized for this study, compounds 9, 10, and 11 were tested for their ability to be deprotected under acidic conditions. Each acetal was dissolved in DMSO and subjected to equal-volume 1 M HCl and incubated at room temperature for 60 minutes. After this time, each solution was neutralized with 1 M NaOH and diluted to a concentration of 1 mM with PBS. In a black 96-well plate, PBS, NAD^+ (2.5 mM), ALDH1A1 (0.4 μM), and either compound 9, 10 or 11 (100 μM) were added. After 5 minutes, each well was treated with ATP-MgSO4 (45 μL, prepared by mixing 17.78 mM ATP-Mg and 35.56 mM MgSO4 in a 1:1 ratio in PBS buffer) and luciferase (5 μL, 1 mg/mL in PBS containing 10% glycerol) to initiate bioluminescence production. Light was collected immediately after mixing, and the signal enhancement was determined relative to control wells containing no probe or enzymes. The total volume of each well was 200 μL (PBS (pH 7.4) with 0.5% DMSO). All data reported as the mean±standard deviation (n=4).

[3] = system: mesenchymal stem cells (MSCs); test: AlDeLuc in mesenchymal stem cells, lysed and treated with luciferase; format: cell-based; details: 20 μM, one hour, ~2.5×10^5 MSCs, lysed
Experimental: Testing commenced by incubating MSCs with AlDeLuc (20 μM). After one hour, the cells were lysed, treated with luciferase, and imaged. […] Moreover, we wanted to allow for any oxidized N,N-diethyl luciferin substrate to accumulate for the highest possible signal.

## CCN(CC)c1ccc2nc(C3=N[C@@H](C(OC)OC)CS3)sc2c1 [AlDeLuc, (S)-2-(4-(dimethoxymethyl)-4,5-dihydrothiazol-2-yl)-N,N-diethylbenzo[d]thiazol-6-amine]
[1]; 3.6×10^6 A549 cells, 100 μM, 60 min
  bioluminescence intensity increase: 56 fold
[1]; ~1.25×10^5 A549 cells, 20 μM, one hour
  light emission relative to vehicle controls: 22.1 fold
BALB/c mice
  H&E stains of spleen, kidneys, lungs, heart, liver compared to vehicle animals: indistinguishable
[2]
  acid resistance of acetal (bioluminescence emission after HCl, neutralization, ALDH1A1 and luciferase): most acid-resistant
[3]
  bioluminescence of treated cells: indistinguishable from blank controls
